Values joined by “and” are separate entries in the source; they are usually repeats but may differ in a detail not shown here. Identical values can stand only once.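 Interpolation was linear, between the two tested concentrations surrounding the appropriate level; five concentrations were tested over 48 hours in 96-well plates. The concentration for 50% growth inhibition is given as GI50. TGI: concentration producing complete growth inhibition.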
What was measured:
P388/ADR leukemia = assay: NCI tumour cell line growth inhibition, 48 h
SN12K1 renal = assay: NCI tumour cell line growth inhibition, 48 h

How did the GI50 (P388/ADR leukemia) turn out when `CSC1SCC2C(=O)N(C)C(C(C)C)C(=O)OCC(NC(=O)c3cnc4ccccc4n3)C(=O)NC(C)C(=O)N(C)C1C(=O)N(C)C(C(C)C)C(=O)OCC(NC(=O)c1cnc3ccccc3n1)C(=O)NC(C)C(=O)N2C` (centres undefined) was run?
The GI50 was 7.5 nM.

And the TGI (P388/ADR leukemia)?
The TGI was 49 nM and 34.8 nM.

What about the GI50 (SN12K1 renal) of the same compound?
The GI50 was 0.567 nM.

And the TGI (SN12K1 renal)?
Its TGI is 24.8 nM and 80.1 nM.

Reference: PubChem BioAssay (NCI)
